Source: patent publication US11084814B2, “Pyrido[3, 4-d]pyrimidine derivative and pharmaceutically acceptable salt thereof” (Teijin Pharma Limited, priority 2016, dated 2021)

What was measured:
[1] = target: T1, CDK4/cyclin D3 (Homo sapiens, UniProt P11802); experiment: Human CDK4/cyclin D3 inhibitory activity (QS S Assist CDK4/Cyclin D3_FP Kit, IMAP fluorescent polarization); format: biochemical; details: read-out: CDK4 Activity symbol
T1 construct: purchased Carna Biosciences, Inc. QS S Assist CDK4/Cyclin D3_FP Kit
T1 sequence (P11802 whole entry): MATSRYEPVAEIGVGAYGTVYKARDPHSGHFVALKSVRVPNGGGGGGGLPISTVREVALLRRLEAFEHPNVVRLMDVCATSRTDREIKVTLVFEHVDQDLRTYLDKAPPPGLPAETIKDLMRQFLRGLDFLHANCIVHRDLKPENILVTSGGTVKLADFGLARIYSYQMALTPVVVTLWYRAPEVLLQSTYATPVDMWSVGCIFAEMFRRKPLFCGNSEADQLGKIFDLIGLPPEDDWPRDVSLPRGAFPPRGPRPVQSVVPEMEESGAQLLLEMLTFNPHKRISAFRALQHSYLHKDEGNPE
T1 sequence (P30281 whole entry partner): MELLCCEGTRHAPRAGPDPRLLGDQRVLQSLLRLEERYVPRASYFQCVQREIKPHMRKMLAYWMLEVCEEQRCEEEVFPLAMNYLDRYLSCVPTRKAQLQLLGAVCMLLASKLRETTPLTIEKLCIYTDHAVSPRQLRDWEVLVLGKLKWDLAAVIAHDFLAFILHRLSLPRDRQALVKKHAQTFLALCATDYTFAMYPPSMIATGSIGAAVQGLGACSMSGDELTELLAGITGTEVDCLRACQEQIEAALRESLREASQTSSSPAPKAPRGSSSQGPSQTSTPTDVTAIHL
Procedure: Human CDK4/Cyclin D3 Inhibitory Activity
(§1) Each compound was analyzed for CDK4/cyclin D3 inhibitory activity with an assay kit (QS S Assist CDK4/Cyclin D3_FP Kit, available from Carna Biosciences, Inc.). This assay kit determines kinase activity on the basis of the IMAP technology by Molecular Devices. Specifically, the kinase activity is determined through quantification of a variation in fluorescent polarization caused by binding of a kinase-phosphorylated fluorescent substance to an IMAP-binding reagent.
Each solution was prepared with the 10× assay buffer attached to the kit or a separately prepared assay buffer having the same composition as the assay buffer attached to the kit. An assay buffer was prepared by 10-fold dilution of the 10× assay buffer with distilled water. The assay buffer contains 20 mM HEPES (pH 7.4), 0.01% Tween20, and 2 mM dithiothreitol. A test compound solution was prepared by dilution of the test compound with dimethyl sulfoxide (DMSO) to a concentration 100 times higher than the final concentration and then 25-fold dilution with the assay buffer to a concentration four times higher than the final concentration. An ATP/substrate/Metal solution was prepared by five-fold dilution of the 5×ATP/substrate/Metal solution attached to the kit with the assay buffer. An enzyme solution was prepared by dilution of the CDK4/cyclin D3 attached to the kit with the assay buffer to a concentration twice higher than the final concentration (final concentration of CDK4/cyclin D3: 12.5 to 25 ng/well). A detection reagent was prepared by five-fold dilution of each of 5×IMAP-binding buffer A and 5×IMAP-binding buffer B with distilled water, mixing of IMAP-binding buffer A with IMAP-binding buffer B at a ratio of 85:15, and 400-fold dilution of the IMAP-binding reagent with the mixed buffer.
(§2) The test compound solution (5 μL/well) and the ATP/substrate/Metal solution (5 μL/well) were added to a 384-well plate, and the enzyme solution or the assay buffer (10 μL/well) was added to the plate (total amount of the reaction mixture: 20 μL/well) for initiation of enzymatic reaction. […] The reaction was performed at room temperature for 45 minutes, and the detection reagent (60 μL/well) was then added to the plate, followed by further reaction for 30 minutes at room temperature under light shielding conditions. Subsequently, fluorescent polarization was determined with a microplate reader at an excitation wavelength of 485 nm and an emission wavelength of 535 nm.
(§3) The percent inhibition of enzyme activity was calculated for each test compound (note: enzyme activity=100% in the case of addition of the enzyme solution and addition of DMSO instead of the test compound solution, whereas enzyme activity […] in the case of addition of the assay buffer instead of the enzyme solution, and addition of DMSO instead of the test compound solution). The percent inhibition of enzyme activity was fitted to a dose-response curve, to determine a 50% inhibitory concentration against CDK4/cyclin D3.
In each table, “+++” corresponds to IC50<10 nM. “++” 10 nM […] IC50<100 nM, and “+” 100 nM≤IC50.

[2] = target: T2, CDK2/cyclin A2 (Homo sapiens, UniProt P24941); experiment: Human CDK2/cyclin A2 inhibitory activity (QS S Assist CDK2/Cyclin A2_FP Kit, IMAP fluorescent polarization); format: biochemical; details: read-out: CDK2 Activity symbol
T2 construct: purchased Carna Biosciences, Inc. QS S Assist CDK2/Cyclin A2_FP Kit
Procedure: Human CDK2/Cyclin A2 Inhibitory Activity
as §1, with “CDK2/cyclin A2” for “CDK4/cyclin D3”, “CDK2/Cyclin A2_FP” for “CDK4/Cyclin D3_FP”
An assay buffer was prepared by 10-fold dilution of the 10× assay buffer attached to the kit with distilled water, and each solution was prepared with the assay buffer. The assay buffer contained 20 mM HEPES (pH 7.4), 0.01% Tween 20, and 2 mM dithiothreitol. A test compound solution was prepared by dilution of the test compound with dimethyl sulfoxide (DMSO) to a concentration 100 times higher than the final concentration and then 25-fold dilution with the assay buffer to a concentration four times higher than the final concentration. An ATP/substrate/Metal solution was prepared by five-fold dilution of the 5×ATP/substrate/Metal solution attached to the kit with the assay buffer. An enzyme solution was prepared by dilution of the CDK2/cyclin A2 attached to the kit with the assay buffer to a concentration twice higher than the final concentration (final concentration of CDK2/cyclin A2: 2.5 ng/well). A detection reagent was prepared by five-fold dilution of 5×IMAP-binding buffer A with distilled water and 400-fold dilution of the IMAP-binding reagent with the diluted buffer.
as §2, with “60” for “45”
as §3, with “enzyme solution” for “enzyme solution,”, “against CDK2/cyclin A2.” for “against CDK4/cyclin D3.”
In each table, “+++” corresponds to IC50<10 nM, “++” 10 nM≤IC50<100 nM, and “+” 100 nM≤IC50.

Structure (SMILES)	IC50 [1]	IC50 [2]
C[C@@H](O)c1cc2cnc(Nc3ccc(CN4CCN(CCO)CC4)cn3)nc2c(N2CCCCC2)n1 [Compound 49]	< 10 nM	≥ 100 nM
C[C@@H](O)c1cc2cnc(Nc3ccc(CN4CCN(C)CC4)cn3)nc2c(N2CCC[C@@H](F)C2)n1 [Compound 198]	< 10 nM	≥ 100 nM
CN1CCN(c2ccc(Nc3ncc4cc(CO)nc(C5CCCCC5)c4n3)nc2)CC1 [Compound 5]	< 10 nM	≥ 100 nM
C[C@@H](O)c1cc2cnc(Nc3ccc(CN4CCNCC4)cn3)nc2c(N2CCCCC2)n1 [Compound 155]	< 10 nM	≥ 100 nM
C[C@@H](O)c1cc2cnc(Nc3ccc(CN4CCN(C)CC4)cn3)nc2c(N2CC[C@@H](F)C2)n1 [Compound 116]	< 10 nM	≥ 100 nM
C[C@@H](O)c1cc2cnc(Nc3ccc4c(n3)CCN(CCN(C)C)C4)nc2c(N2CCCCC2)n1 [Compound 60]	< 10 nM	≥ 100 nM
C[C@@H]1CCN(c2nc([C@@H](C)O)cc3cnc(Nc4ccc(CN5CCN(CCO)CC5)cn4)nc23)C1 [Compound 100]	< 10 nM	≥ 100 nM
OCCN1CCN(Cc2ccc(Nc3ncc4cc(CO)nc(N5CCCCC5)c4n3)nc2)CC1 [Compound 96]	< 10 nM	≥ 100 nM
C[C@@H](O)c1cc2cnc(Nc3ccc(N4CCN(C)CC4)nn3)nc2c(N2CCCCC2)n1 [Compound 123, (R)-1-(2-((6-(4-methylpiperazin-1-yl)pyridazin-3-yl)amino)-8-(piperidin-1-yl)pyrido[3,4-d]pyrimidin-6-yl)ethanol]	< 10 nM	≥ 100 nM
C[C@H](CO)c1cc2cnc(Nc3ccc(N4CCNCC4=O)cn3)nc2c(N2CCCCC2)n1 [Compound 192]	10 to 100 nM	≥ 100 nM
C[C@@H](O)c1cc2cnc(Nc3ccc(CN4CCN(CCO)CC4)cn3)nc2c(N2CCN(C)CC2)n1 [Compound 77]	10 to 100 nM	≥ 100 nM
C[C@@H](O)c1cc2cnc(Nc3ccc(CN4CCN(CCO)CC4)cn3)nc2c(N2CC3(CCC3)C2)n1 [Compound 57]	< 10 nM	≥ 100 nM
C[C@H](CO)c1cc2cnc(Nc3ccc(CN4CCN(CCO)CC4)cn3)nc2c(N2CCCCC2)n1 [Compound 195]	10 to 100 nM	≥ 100 nM
CC(O)c1cc2cnc(Nc3ccc(CN4CCN(C)CC4)cn3)nc2c(N2C3CCC2COC3)n1 (centres unmarked) [Compound 292]	< 10 nM	≥ 100 nM
C[C@@H](O)c1cc2cnc(Nc3ccc4c(n3)CCN(C(=O)CN3CCCC3)C4)nc2c(N2C3CCC2CC3)n1 [Compound 228]	< 10 nM	≥ 100 nM
C[C@@H](O)c1cc2cnc(Nc3ccc4c(n3)CCN(C(=O)CN3CC[C@H](O)C3)C4)nc2c(N2C3CCC2CC3)n1 [Compound 233]	< 10 nM	≥ 100 nM
C[C@@H](O)c1cc2cnc(Nc3ccc(N4CCNCC4=O)cn3)nc2c(N2C3CCC2CC3)n1 [Compound 256]	< 10 nM	≥ 100 nM
Cc1nc(Nc2ncc3cc([C@@H](C)O)nc(N4CCCC4)c3n2)ccc1N1CCN(C)CC1 [Compound 53]	< 10 nM	≥ 100 nM
C[C@H](CO)c1cc2cnc(Nc3ccc4c(n3)CCNC4)nc2c(N2CCCCC2)n1 [Compound 166]	10 to 100 nM	≥ 100 nM
C[C@@H](O)c1cc2cnc(Nc3ccc(OC4CCNCC4)cn3)nc2c(N2CCCCC2)n1 [Compound 164]	< 10 nM	≥ 100 nM
C[C@@H](CO)c1cc2cnc(Nc3ccc(CN4CCN(CCO)CC4)cn3)nc2c(N2CCCCC2)n1 [Compound 167]	< 10 nM	≥ 100 nM
C[C@@H](O)c1cc2cnc(Nc3ccc(N4CCNCC4=O)cn3)nc2c(N2CCCCC2)n1 [Compound 52]	< 10 nM	≥ 100 nM
C[C@@H](O)c1cc2cnc(Nc3ccc4c(n3)CCN(C(=O)C3CCNCC3)C4)nc2c(N2CCCCC2)n1 [Compound 147]	< 10 nM	≥ 100 nM
CC[C@H](O)c1cc2cnc(Nc3ccc(CN4CCN(CCO)CC4)cn3)nc2c(N2CCCCC2)n1 [Compound 160]	< 10 nM	≥ 100 nM

Next, values leading:

IC50 [1]	IC50 [2]	Structure (SMILES)
< 10 nM	≥ 100 nM	CC(O)c1cc2cnc(Nc3ccc(OC4CCN(CCO)CC4)cn3)nc2c(N2C3CCC2CC3)n1 (centres unmarked) [Compound 218]
< 10 nM	≥ 100 nM	C[C@@H](O)c1cc2cnc(Nc3ccc4c(n3)CCNC4)nc2c(N2CCC(C#N)CC2)n1 [Compound 274]
10 to 100 nM	≥ 100 nM	C[C@@H](O)c1cc2cnc(Nc3ccc4c(n3)CCN([C@H]3CC[C@H](O)CC3)C4)nc2c(N2CCCCC2)n1 [Compound 283]
10 to 100 nM	≥ 100 nM	C[C@@H](O)c1cc2cnc(Nc3ccc4c(n3)CCN(C(=O)Cn3nccn3)C4)nc2c(N2CCCCC2)n1 [Compound 337]
< 10 nM	≥ 100 nM	C[C@@H](O)c1cc2cnc(Nc3ccc(OC4CCNCC4)cn3)nc2c(N2CC[C@@H](F)C2)n1 [Compound 221]
< 10 nM	≥ 100 nM	C[C@H]1CCN(c2nc([C@@H](C)O)cc3cnc(Nc4ccc(N5CCCNCC5=O)cn4)nc23)C1 [Compound 258]
< 10 nM	≥ 100 nM	C[C@@H](O)c1cc2cnc(Nc3ccc(C(=O)N4CCN(CCO)CC4)cn3)nc2c(N2CCCCC2)n1 [Compound 308]
< 10 nM	≥ 100 nM	O=C1CNCCCN1c1ccc(Nc2ncc3cc(C4COC4)nc(N4CCCCC4)c3n2)nc1 [Compound 323]
10 to 100 nM	≥ 100 nM	C[C@@H](O)c1cc2cnc(Nc3ccc(CN4CCN(CCO)C(=O)C4)cn3)nc2c(N2CCCCC2)n1 [Compound 249]
< 10 nM	≥ 100 nM	C[C@@H](O)c1cc2cnc(Nc3ccc4c(n3)CCN(C3CN(C)C3)C4)nc2c(N2CCCCC2)n1 [Compound 200]
< 10 nM	≥ 100 nM	C[C@@H](O)c1cc2cnc(Nc3ccc(OC4CCNCC4)cn3)nc2c(N2CCC[C@H](F)C2)n1 [Compound 243]
< 10 nM	≥ 100 nM	C[C@@H](O)c1cc2cnc(Nc3ccc(CN4CCN(C)CC4)cn3)nc2c(N2CCOCC2(C)C)n1 [Compound 322]
< 10 nM	≥ 100 nM	C[C@@H](O)c1cc2cnc(Nc3ccc4c(n3)CCN(C(=O)[C@H]3CCN3)C4)nc2c(N2CCCCC2)n1 [Compound 215]
